Measured values published in patent publication US20060009432A1, “Use of neurosteroids to treat neuropathic pain” (priority 2004, published 2006).

Test system: chronic constriction injury (CCI) of the sciatic nerve, rats
Assay: Cold allodynia (acetone application) in chronic constriction injury model
Type: in vivo, rat
Conditions: neuropathic pain model as disclosed in Example 2
Protocol: Unilateral sciatic nerve injury was produced under deep anesthesia with i.p injection of sodium pentobarbital (Mebumal, 60 mg/kg), as described by Bennett and Xie (Pain, 33, 87-107(1988)). The common sciatic nerve was exposed and freed for about 10 mm at mid-thigh level. Four ligatures (Ethicon, 4.0 plain gut) were tied loosely around the nerve with about 1-mm spacing creating a chronic constriction injury (CCl), and the incision was closed.
Brisk foot withdrawal in response to acetone application was measured based on the method described by Choi et al. The acetone bubble was gently brought in touch with the plantar surface around the center, and the acetone quickly spread over the central part of the plantar surface of the foot. Applications were made five times (once every 5 min) to each paw. The score for each application was recorded as follows: foot withdrawal was scored as positive (1) and lack of withdrawal as negative (O). The total score (0 to 5) was taken as index for cold sensitivity of the foot […]. This approximates pain from a non-noxious stimulus, i.e. allodynia.
Cold allodynia response was measured 15, 30, 45, 60, 90 and 120 minutes after i.p. administration of ganaxolone (at 1 mg/kg, 3 mg/kg or 10 mg/kg) as well as prior to administration of the neurosteroid and prior to infliction of the neural injury. Table 1 provides the resulting measurement of cold allodynia response in groups of six rats per dosage level. The abbreviation “s.e.m.” means standard error mean.

C[C@]12CC[C@@H](O)C[C@@H]1CC[C@H]1[C@@H]3CC[C@H](C(=O)CO)[C@@]3(C)CC(=O)[C@@H]12 [Alphadolone, reference compound]
Activity in the neuropathic pain model: inactive
